System: 186277-243-T-J2-PDC complex spheroids, viability
Assay: Anticancer human tumor 186277-243-T-J2-PDC patient-derived colon adenocarcinoma cell line growth inhibition [RAS]
Settings: for IC50: curve of first compound; for viability, T/C: stronger effect = lower value; active = viability on the fitted dose curve at most 10% of control; inactive = the rest
From the text: RAS pathway inhibitors in Combinations in Complex Spheroids
A high-throughput screen of multi-cell type tumor spheroids was designed to identify active combinations of RAS pathway inhibitors and targeted small molecules. Complex spheroids include a stromal component modeled by human endothelial cells (HUVEC) and fibroblasts modeled by human mesenchymal stem cells (MSCs). The concentration ranges selected for each drug and investigational agent were based upon clinically achievable concentrations if the clinical Cmax of the agent was known.
Compounds. The drugs and investigational agents: abemaciclib (NSC768073), cobimetinib (NSC768068), divarasib (GDC6063, NSC841802), docetaxel (NSC628503), GDC-1971 (RLY-1971, NSC841576), gemcitabine (NSC613327), inavolisib (NSC800729), ipatasertib (NSC767898), KB-0742 (NSC834161), MRTX-1133 (NSC836407), osimertinib (NSC779217), RMC-4630 (NSC839698), RMC-6236 (NSC851965), RMC-6291 (NSC852671), Ro-3306 (NSC812927), sapanisertib (NSC764658), SN-38 (NSC673596), staurosporine (NSC755774), SY5609 (NSC837396), and tovorafenib (DAY101, NSC766906), were obtained from the National Cancer Institute (NCI) Developmental Therapeutics Program Chemical Repository. The FDA-approved anticancer drug set is available from the NCI Developmental Therapeutics Program. […] The stock solutions were prepared in dimethyl sulfoxide (DMSO, Sigma-Aldrich, St. Louis, MO, cat. D2650) at 800-fold the tested concentration and stored at -70 degrees C prior to their use. All drugs and investigational agents were tested over a range starting from a high concentration at or near the clinical Cmax and decreasing in half-log increments. If the clinical Cmax for an agent had not been determined, the highest concentration tested was 10 microM.
Cell Culture. All cells were maintained in an incubator at 37 degrees C and 5% CO2 with 95% humidity. The PDC lines were cultured according to standard operating procedures established by the NCI PDMR. All PDCs were thawed and cultured in Matrigel-coated flasks prepared with a working solution of 1X Ham's F-12 nutrient mix, without supplementation (Invitrogen, Waltham, MA, cat. 11765054), 100 U/mL penicillin-streptomycin (Invitrogen, cat. 15140122), and 2.5% Matrigel (Corning Inc., Corning, NY, cat. 354248) for the first three passages. The 362531-283-R-J2-PDC and 782815-120-R-J1-PDC lines were cultured in 6C/Colon 1B media, which includes advanced DMEM/F-12 (Thermo Fisher Scientific, cat. 12634028), 10 mM HEPES (Thermo Fisher Scientific, cat. 15630080), 1X GlutaMAX supplement (Thermo Fisher Scientific, cat. 35050061), 0.1 mg/mL primocin (InvivoGen, San Diego, CA, cat. ant-pm-2), 10% defined fetal bovine serum, heat inactivated (HyClone Laboratories Inc., Logan, UT, cat. SH30070.03HI), 50% L-WRN conditioned media (ATCC, cat. CRL-3276), 1.25 mM N-Acetyl-L-cysteine (Sigma-Aldrich, cat. A9165), 10 mM nicotinamide (Sigma-Aldrich, cat. N0636), 1X B-27 supplement (Thermo Fisher Scientific, cat. 17504044), 1X N-2 supplement (Thermo Fisher Scientific, cat. 17502048), 50 ng/mL human EGF (Thermo Fisher Scientific, cat. PHG0311), and 10 microM Y-27632 dihydrochloride (Tocris Bioscience, cat. 1254). The K12877-001-R-J1-PDC line was cultured in 6I media, which includes all 6C/Colon 1B media plus 10 ng/mL human FGF-10 (PeproTech, cat. 100-26), 1 ng/mL human FGF-2 (PeproTech, cat. 100-18B), 1 µM prostaglandin E2 (Tocris Bioscience, cat. 2296), […] hydrocortisone (Sigma-Aldrich, cat. H4001), and […] bovine insulin (Sigma-Aldrich, cat. I6634). The K86415-001-R-J1-PDC line was cultured in 6D media, which includes all 6C/Colon 1B media components minus the L-WRN conditioned media. The 485176-168-R4-J1-PDC was cultured in PANC media, which includes all 6C/Colon 1B media plus 100 ng/mL human FGF-10 (PeproTech, cat. 100-26), 500 nM SB-431542 (Selleckchem, cat. S1067), and 10 nM gastrin (Tocris Bioscience, cat. 3006). […]

[1] = second compound 0.0316 µM, first compound 0.0316 µM
[2] = second compound 0.0316 µM, first compound 0.1 µM
[3] = second compound 0.1 µM, first compound 0.0316 µM
[4] = second compound 0.1 µM, first compound 0.1 µM
[5] = second compound 0.316 µM, first compound 0.0316 µM
[6] = second compound 0.316 µM, first compound 0.1 µM
[7] = second compound 1 µM, first compound 0.0316 µM
[8] = second compound 1 µM, first compound 0.1 µM
[9] = second compound 3.16 µM, first compound 0.0316 µM
[10] = second compound 3.16 µM, first compound 0.1 µM
[11] = second compound 10 µM, first compound 0.0316 µM
[12] = second compound 10 µM, first compound 0.1 µM
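Note: spheroids exposed to compounds for 7 days before viability read.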

CC(C)NCC(C(=O)N1CCN(c2ncnc3c2C(C)CC3O)CC1)c1ccc(Cl)cc1 (centres undefined) + C#Cc1c(F)ccc2cc(O)cc(-c3ncc4c(N5CC6CCC(C5)N6)nc(OCC56CCCN5CC(F)C6)nc4c3F)c12
active: viability, T/C (second compound 0.0316 µM, first compound 10 µM) 7.17% | viability, T/C (second compound 0.1 µM, first compound 1 µM) 12% | viability, T/C (second compound 0.1 µM, first compound 3.16 µM) 6.43% | viability, T/C (second compound 0.1 µM, first compound 10 µM) 4.17% | viability, T/C (second compound 0.316 µM, first compound 1 µM) 5.77% | viability, T/C (second compound 0.316 µM, first compound 3.16 µM) 3.93% | viability, T/C (second compound 0.316 µM, first compound 10 µM) 2.95% | viability, T/C (second compound 1 µM, first compound 0.316 µM) 10.1% | viability, T/C (second compound 1 µM, first compound 1 µM) 5.25% | viability, T/C (second compound 1 µM, first compound 3.16 µM) 4.08% | viability, T/C (second compound 1 µM, first compound 10 µM) 2.03% | viability, T/C (second compound 3.16 µM, first compound 0.316 µM) 9.1% | viability, T/C (second compound 3.16 µM, first compound 1 µM) 3.67% | viability, T/C (second compound 3.16 µM, first compound 3.16 µM) 2.83% | viability, T/C (second compound 3.16 µM, first compound 10 µM) 2.07% | viability, T/C [11] 8.59% | viability, T/C [12] 9.81% | viability, T/C (second compound 10 µM, first compound 0.316 µM) 5.65% | viability, T/C (second compound 10 µM, first compound 1 µM) 3.64% | viability, T/C (second compound 10 µM, first compound 3.16 µM) 2.9% | viability, T/C (second compound 10 µM, first compound 10 µM) 0.94%
117 nM: IC50 (second compound 0.1 µM)
244 nM: IC50 (second compound 0.0316 µM)
< 31.6 nM: IC50 (second compound 0.316 µM) | IC50 (second compound 1 µM) | IC50 (second compound 3.16 µM) | IC50 (second compound 10 µM)
inactive: viability, T/C [1] 74.3% | viability, T/C [2] 76.1% | viability, T/C (second compound 0.0316 µM, first compound 0.316 µM) 40.8% | viability, T/C (second compound 0.0316 µM, first compound 1 µM) 20.5% | viability, T/C (second compound 0.0316 µM, first compound 3.16 µM) 10.6% | viability, T/C [3] 55.4% | viability, T/C [4] 55.4% | viability, T/C (second compound 0.1 µM, first compound 0.316 µM) 29.3% | viability, T/C [5] 28.8% | viability, T/C [6] 26.3% | viability, T/C (second compound 0.316 µM, first compound 0.316 µM) 13.1% | viability, T/C [7] 17.7% | viability, T/C [8] 14.4% | viability, T/C [9] 12.4% | viability, T/C [10] 11.2%

CC(C)n1nc(-c2ccc3oc(N)nc3c2)c2c(N)ncnc21 + C#Cc1c(F)ccc2cc(O)cc(-c3ncc4c(N5CC6CCC(C5)N6)nc(OCC56CCCN5CC(F)C6)nc4c3F)c12
1.83 nM: IC50 (second compound 0.1 µM)
13.7 nM: IC50 (second compound 0.0316 µM)
active: viability, T/C [4] 7.3% | viability, T/C [5] 7.95% | viability, T/C [6] 3.56% | viability, T/C (second compound 1 µM, first compound 0.01 µM) 6.42% | viability, T/C [7] 5.57% | viability, T/C [8] 2.65% | viability, T/C (second compound 3.16 µM, first compound 0.00316 µM) 7.28% | viability, T/C (second compound 3.16 µM, first compound 0.01 µM) 4.66% | viability, T/C [9] 4.51% | viability, T/C [10] 2.8% | viability, T/C (second compound 10 µM, first compound 0.001 µM) 6.96% | viability, T/C (second compound 10 µM, first compound 0.00316 µM) 8.48% | viability, T/C (second compound 10 µM, first compound 0.01 µM) 4.45% | viability, T/C [11] 3.9% | viability, T/C [12] 1.75%
< 0.316 nM: IC50 (second compound 0.316 µM) | IC50 (second compound 1 µM) | IC50 (second compound 3.16 µM) | IC50 (second compound 10 µM)
inactive: viability, T/C (second compound 0.0316 µM, first compound 0.000316 µM) 69.1% | viability, T/C (second compound 0.0316 µM, first compound 0.001 µM) 90.7% | viability, T/C (second compound 0.0316 µM, first compound 0.00316 µM) 58.6% | viability, T/C (second compound 0.0316 µM, first compound 0.01 µM) 51.7% | viability, T/C [1] 44.2% | viability, T/C [2] 25.9% | viability, T/C (second compound 0.1 µM, first compound 0.000316 µM) 63.1% | viability, T/C (second compound 0.1 µM, first compound 0.001 µM) 53.6% | viability, T/C (second compound 0.1 µM, first compound 0.00316 µM) 44.3% | viability, T/C (second compound 0.1 µM, first compound 0.01 µM) 37.8% | viability, T/C [3] 19.9% | viability, T/C (second compound 0.316 µM, first compound 0.000316 µM) 26% | viability, T/C (second compound 0.316 µM, first compound 0.001 µM) 28.6% | viability, T/C (second compound 0.316 µM, first compound 0.00316 µM) 13.9% | viability, T/C (second compound 0.316 µM, first compound 0.01 µM) 12.1% | viability, T/C (second compound 1 µM, first compound 0.000316 µM) 18.2% | viability, T/C (second compound 1 µM, first compound 0.001 µM) 14.2% | viability, T/C (second compound 1 µM, first compound 0.00316 µM) 13.9% | viability, T/C (second compound 3.16 µM, first compound 0.000316 µM) 13.7% | viability, T/C (second compound 3.16 µM, first compound 0.001 µM) 11.4% | viability, T/C (second compound 10 µM, first compound 0.000316 µM) 9.87%

Source: PubChem BioAssay AID2060908 (Molecular Pharmacology Branch, DTP, NCI, 2025)
